Measured values taken from patent US20020099241A1, “Alpha-sulfin-and alpha-sulfonamino acid amides” (priority 1998, published 2002).

Experiments:
[1] = system: Plasmopara viticola; assay: D-1: Action against Plasmopara viticola on vines (residual-protective and residual-curative); type: in vivo; conditions: vine seedlings, spray mixture 0.02% active ingredient, evaluated 6 days after infection; protective/curative not distinguished
Protocol: D-1: Action Against Plasmopara viticola on Vines a) Residual-Protective Action
Vine seedlings are sprayed at the 4- to 5-leaf stage with a spray mixture (0.02% active ingredient) prepared from a wettable powder formulation of the test compound. After 24 hours, the treated plants are infected with a sporangia suspension of the fungus. Fungus infestation is evaluated after incubation for 6 days at 95-100% relative humidity and 20° C. […]
b) Residual-Curative Action
Vine seedlings are infected at the 4- to 5-leaf stage with a sporangia suspension of the fungus. After incubation for 24 hours in a humidity chamber at 95-100% relative humidity and 20° C., the infected plants are dried and sprayed with a spray mixture (0.02% active ingredient) prepared from a wettable powder formulation of the test compound. After the spray coating has dried, the treated plants are placed in the humidity chamber again. Fungus infestation is evaluated 6 days after infection.

[2] = system: Phytophthora; assay: D-3: Action against Phytophthora on potato plants (residual-protective and systemic); type: in vivo; conditions: potato plants (Bintje variety), spray or soil watering 0.02% active ingredient, evaluated 4 days after infection; protective/systemic not distinguished
Protocol: D-3: Action Against Phytophthora on Potato Plants
(§1) a) Residual-Protective Action
(§2) 2-3 week old potato plants (Bintje variety) are sprayed with a spray mixture (0.02% active ingredient) prepared from a wettable powder formulation of the test compound. After 48 hours, the treated plants are infected with a sporangia suspension of the fungus. Fungus infestation is evaluated after incubation of the infected plants for 4 days at 90-100% relative humidity and 20° C.
as §2, with “watered” for “sprayed”, “ingredient based on the volume of the soil)” for “ingredient)”, “compound. […]” for “compound.”, “C. Fungal infestation is effectively controlled with compounds of Tables 1 to 37.” for “C.”

[3] = system: Phytophthora; assay: D-2: Action against Phytophthora on tomato plants (residual-protective and systemic); type: in vivo; conditions: spray or soil watering 0.02% active ingredient, evaluated 4-5 days after infection, protective/systemic not distinguished
Protocol: D-2: Action Against Phytophthora on Tomato Plants
as §1
(§3) After a cultivation period of 3 weeks, tomato plants are sprayed with a spray mixture (0.02% active ingredient) prepared from a wettable powder formulation of the test compound. After 48 hours, the treated plants are infected with a sporangia suspension of the fungus. Fungus infestation is evaluated after incubation of the infected plants for 5 days at 90-100% relative humidity and 20° C.
as §3, with “watered” for “sprayed”, “ingredient based on the volume of the soil)” for “ingredient)”, “compound. […]” for “compound.”, “96” for “48”, “4” for “5”

Compound	melting point [°C]	Fungus infestation [1]	Fungus infestation [2]	Fungus infestation [3]
CCS(=O)(=O)N[C@H](C(=O)NCCc1ccc(OCCCc2cccc(C(F)(F)F)c2)c(OC)c1)C(C)C	119 to 120	–	–	–
COc1cc(CCNC(=O)[C@@H](NS(C)(=O)=O)C(C)C)ccc1OCCCc1ccc(Cl)cc1	128 to 130	–	–	–
CCS(=O)(=O)N[C@H](C(=O)NCCc1ccc(OCC(C)c2ccc(F)cc2)c(OC)c1)C(C)C (stereo partly drawn) [Compound A1.01, (S)-2-Ethanesulfonylamino-N-(2-{4-[2-(4-fluoro-phenyl)-propoxy]-3-methoxy-phenyl}-ethyl)-3-methyl-butyramide]	107 to 111	completely inhibit fungal infestation	completely inhibit fungal infestation	completely inhibit fungal infestation
